According to patent US20010009995A1, “Oxybutynin therapy” (priority 1998, published 2001):

Details: human, in vivo

CCNCC#CCOC(=O)C(O)(c1ccccc1)C1CCCCC1 (stereo not shown) [DESOXY, desethyloxybutynin]
t1/2 life of DESOXY compared to OXY: shorter
